Laboratory results as given in US20040039048A1, “Therapy with cannabinoid compounds for the treatment of brain tumors” (priority 2000, published 2004).
Entries after “also recorded” stand apart in the source; their conditions may differ. Like-named read-outs stand apart in the source and are kept apart here.

What was measured:
[1] = test system: C6 glioblastoma cells; experiment: C6 glioblastoma cells inoculated subcutaneously in immunodeficient RAG-2-/- mice; tumor size; assay type: in vivo; settings: 500 μg of THC or 50 μg of WIN-55,212-2 per day for 7 days, caliper, P<0.01 Student t test
Method: In order to discern whether the antiproliferative action of cannabinoids was due to a direct effect on the tumoral cells or to an indirect effect mediated by an immune response, C6 glioblastoma cells were inoculated subcutaneously in mice with a deficiency of recombinase RAG-2 (RAG-2^-/-), which lack mature T and B lymphocytes (Shinkai et al. Cell 68, 855-867, 1992).
Tumors were induced in RAG-2^-/- […] by subcutaneous inoculation of 5×10^6 C6 glioblastoma cells in 100 μl of PBS supplemented with 0.1% glucose. […] The tumor sizes were measured by a caliper and their volume calculated according to (4π/3)×(width/2)^2×(length/2). […] In FIG. 4b are shown examples of tumor bearing mice and tumors dissected after treatment with or without cannabinoids for 7 days.

[2] = test system: C6 glioblastoma cells; experiment: Viability of C6 glioblastoma culture cells (MTT method); assay type: cell-based; settings: for IC50: after 5 days of exposure, n=4, read-out: concentration reducing viability of C6 glioblastoma by 50%; for prevention of cell death induced by THC, the two antagonists SR141716 and SR144528 jointly added: 1 μM SR141716 and 1 μM SR144528, 5 days
Method: Experiments were conducted with the object of obtaining a pharmacological characterization of cannabinoid-induced death of C6 glioblastoma culture cells.
C6 glioblastoma cells were cultivated at 37° C. and 5% CO2 in F-12 medium supplemented with calf fetal serum at 10%. 24 h before the start of the experiment the cells were transferred to an F-12 medium free of serum and supplemented with insulin (5 μg/ml), transferrine (10 μg/ml), sodium selenite (5 μg/ml) and delipidized and dialyzed BSA (10 mg/ml). The medium was renovated every 48 h and the cell viability was determined by the MTT method (Sanchez, C., Galve-Roperh, I., Canova, C., Brachet, P. & Guzman, M., op cit.).

[3] = test system: C6 glioblastoma cells; experiment: C6 glioblastoma cells inoculated in rat brain; survival and magnetic resonance; assay type: in vivo, Wistar rats
Method: C6 glioblastoma cells were directly inoculated in the brain of Wistar rats and the tumors viewed by magnetic resonance. […] To evaluate the antitumoral potential of the cannabinoids, 12 days after inoculating the cells a group of animals was administered THC or WIN-55, 212-2 for 7 days through a cannula located at the site of inoculation.
Male Wistar rats (250-300 g in body mass) were anaesthetized with 3% isofluorane in an oxygen mixture (0.8 l/min) and protoxide (0.4 l/min). 5×10^8 C6 glioblastoma cells were prepared in 100 μl of saline solution buffered with phosphate (PBS) and supplemented with 0.1% glucose, and stereotaxically injected in the frontal parietal lobule of the right hemisphere (4 mm to the right of bregma, 4.5 mm depth from the cranium) (Izquierdo, M et al., Gene Ther. 2, 66-69, 1995). The rats received dexamethasone (2 mg/l) and tetracycline (75 mg/kg of body weight) in water for 3 days before and 7 days after inoculation of the cells. A thorough monitoring of the tumors was performed by magnetic resonance with the methods described by other authors (Izquierdo, M et al., op cit; Cortés, M. L., de Felipe, P., Martin, V. Hughes, M. A. & Izquierdo, M. Gene Ther. 5, 1499-1507, 1998).
The administration of cannabinoids to rats began 12 days after inoculation of the cells. At this time the average size of the tumors was 70 mm^3 (interval 25-100 mm^3) as estimated by magnetic resonance (Izquierdo, M et al., op cit; Cortés, de Felipe, Martin, Hughes & Izquierdo, M, op cit.). Cannabinoids were administered by a cannula placed at the place of inoculation of the tumor and attached to the cranium by dental cement; a small stainless steel screw anchored the cannula and the dental cement. The cannula was subcutaneously connected by a catheter to an osmotic mini-pump (Alzet 2001) which operated at a flow of 1 μl/h for 7 days. The osmotic pump was filled with 500-2500 μg of THC or 50-250 μg of WIN-55,212-2 in 200 μl of PBS supplemented with 5 mg/l of bovine serum albumin (BSA), delipidized and dialyzed.

[4] = fraction of treated animals, 7 days through cannula from day 12

Molecule | size of tumors versus control animals [1] | IC50 ([2]; 120 h) [nM] | IC50 [2] [nM] | prevention of cell death induced by THC, the two antagonists SR141716 and SR144528 jointly added ([2]; 1 μM THC) | other results
CCCCCc1cc(O)c2c(c1)OC(C)(C)[C@@H]1CCC(C)=C[C@@H]21 [THC, Δ^9-tetrahydrocannabinol] | extraordinarily smaller; also recorded: much smaller | 480 | – | – | induction of death of C6 glioblastoma cells ([2]; 1 μM THC, 5 days, n=6): capable of inducing the death
CCCCCCC(C)(C)c1ccc([C@@H]2C[C@H](O)CC[C@H]2CCCO)c(O)c1 [CP-55,940] | – | – | 45 | – | –
SR144528 | – | – | – | prevented | –
Cc1c(C(=O)c2cccc3ccccc23)c2cccc3c2n1[C@H](CN1CCOCC1)CO3 [WIN-55,212-2] | much smaller | – | 20 | – | survival time ([3]; days after inoculation, in the responding animals, cannabinoid for 7 days through cannula at site of inoculation from day 12, untreated died 12-18 days): 19 to 43 days; animals with increased survival time [3, 4]: 4/15; animals with tumor completely eradicated [3, 4]: 5/15; size of tumors versus control animals ([1]; 212-2): extraordinarily smaller
Cc1c(C(=O)NN2CCCCC2)nn(-c2ccc(Cl)cc2Cl)c1-c1ccc(Cl)cc1 [SR141716] | – | – | – | prevented | prevention of cell death induced by THC, antagonist added separately ([2]; 1 μM THC, 1 μM antagonist, 5 days): Neither
CCCCCCC(C)(C)c1cc(O)c2c(c1)OC(C)(C)[C@@H]1CC=C(CO)C[C@@H]21 [HU-210] | – | 10 | – | – | –
